From patent US20250388602A1 (Genase Therapeutics B.V., priority 2022, published 2025) come the findings set out here.

By half-life is commonly meant the time needed for the level to fall by half in the phase considered. A higher half-life goes with slow decline. What is called IC50 is the midpoint of a concentration-inhibition curve. Read a low IC50 as greater potency.

Series [1] can be described thus: in vitro.
The target of a further series is CYP1A2 (Homo sapiens (Human), UniProt P05177). The experiment in a line: CYP inhibition in pooled human liver microsomes. The format is in vitro ADME. On the procedure:
(§1) CYP inhibition: Co-incubation of compounds with P450 enzyme-selective substrates was performed using pooled human liver microsomes (Cat. No. H0610, Xenotech), to determine their potential to cause drug-drug interactions. The assay was performed in duplicate. The formation of acetaminophen, 7′-hydoxycoumarin, hydrobupropion, N-desethylamodiaquine, 4′-hydroxydiclofenac, 4′-hydroxymephenytoin, 1′-hydroxybufuralol, 6″-hydroxychlorzoxazone were quantified as markers for CYP1A2, CYP2A6, […], CYP2C8, CYP2C9, CYP2C19, […], CYP2E1, respectively. CYP3A4 inhibition was measured using 2 substrates, measuring the formation of […] (3A4-T), and 1′-hydroxymidazolam (3A4-M). The incubation was carried out in 96 deep well plates each well containing: 179 μL of the master solution (0.2 mg/mL microsomes plus CYP substrate (see below for final substrate concentration and incubation time for the different CYP assays)) in 100 mM phosphate buffer and 1 μL of the compound working solution or vehicle. The final concentrations of the compounds in the assay was 30 μM when using a single dose or 0.1, 0.3, 1, 3, 10 and 30 μM for a dose response.
The incubation plate was placed into a water bath and pre-warmed at 37° C. for 5 minutes before the reactions were started by the addition of 20 μL of 10 mM NADPH solution and incubated at 37° C. for the time listed above. […]
On the technique in general: Liver microsomes are vesicles of endoplasmic reticulum, rich in cytochrome P450 enzymes.

Series [2] is described as follows: in vitro. The source holds these as a separate data set.
A further series addresses CYP2E1 (Homo sapiens (Human), UniProt P05181). Description: biochemical. The format is in vitro ADME. On the procedure: as §1
(§2) The incubation plate was placed into a water bath and pre-warmed at 37° C. for 5 minutes before the reactions were started by the addition of 20 μL of 10 mM NADPH solution and incubated at 37° C. for the time listed above. The reaction was stopped by addition of 1.5 volumes (300 μL) of cold ACN containing 3% formic acid and 200 nM tolbutamide, 200 nM aprozolam and 200 nM labalol. The plate was centrifuged at 3,220 g for 50 minutes and then 200 μL of the supernatant was transferred to the analysis plate for LC/MS/MS analysis. The respective metabolite formation from each probe substrate was compared with that observed for the solvent control incubations.

Another series deals with CYP2C9 (Homo sapiens (Human), UniProt P11712). Description: biochemical. The format is in vitro ADME. On the procedure: as §1, §2
CYP2C9, sequence (P11712 whole entry): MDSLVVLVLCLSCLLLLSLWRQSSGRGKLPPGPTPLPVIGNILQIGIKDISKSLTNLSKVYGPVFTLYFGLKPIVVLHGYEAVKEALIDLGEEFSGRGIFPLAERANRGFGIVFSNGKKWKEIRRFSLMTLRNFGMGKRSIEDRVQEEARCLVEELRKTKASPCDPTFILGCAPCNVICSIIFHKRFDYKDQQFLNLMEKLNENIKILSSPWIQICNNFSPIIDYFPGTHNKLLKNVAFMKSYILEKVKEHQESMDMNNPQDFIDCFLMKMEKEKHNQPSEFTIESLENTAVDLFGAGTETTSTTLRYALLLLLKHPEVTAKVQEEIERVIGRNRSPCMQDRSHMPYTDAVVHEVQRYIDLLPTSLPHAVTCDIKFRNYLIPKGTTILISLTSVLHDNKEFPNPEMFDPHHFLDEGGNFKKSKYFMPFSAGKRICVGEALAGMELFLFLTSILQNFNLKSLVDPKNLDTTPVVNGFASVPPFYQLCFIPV
In another series the target is CYP3A4 (Homo sapiens (Human), UniProt P08684). Description: biochemical. The format is in vitro ADME. On the procedure:
as §1, §2

Another series addresses CYP2A6 (Homo sapiens (Human), UniProt P11509). Description: biochemical. The format is in vitro ADME. On the procedure: as §1, §2
Another series concerns the target CYP2B6 (Homo sapiens (Human), UniProt P20813). The experiment in a line: biochemical. The format is in vitro ADME. On the procedure: as §1, §2
The target of another series is CYP2C8 (Homo sapiens (Human), UniProt P10632). The experiment in a line: biochemical. The format is in vitro ADME. On the procedure:
as §1, §2

The target of another series is CYP2C19 (Homo sapiens (Human), UniProt P33261). The experiment in a line: biochemical. The format is in vitro ADME. On the procedure: as §1, §2
CYP2C19, sequence (P33261 whole entry): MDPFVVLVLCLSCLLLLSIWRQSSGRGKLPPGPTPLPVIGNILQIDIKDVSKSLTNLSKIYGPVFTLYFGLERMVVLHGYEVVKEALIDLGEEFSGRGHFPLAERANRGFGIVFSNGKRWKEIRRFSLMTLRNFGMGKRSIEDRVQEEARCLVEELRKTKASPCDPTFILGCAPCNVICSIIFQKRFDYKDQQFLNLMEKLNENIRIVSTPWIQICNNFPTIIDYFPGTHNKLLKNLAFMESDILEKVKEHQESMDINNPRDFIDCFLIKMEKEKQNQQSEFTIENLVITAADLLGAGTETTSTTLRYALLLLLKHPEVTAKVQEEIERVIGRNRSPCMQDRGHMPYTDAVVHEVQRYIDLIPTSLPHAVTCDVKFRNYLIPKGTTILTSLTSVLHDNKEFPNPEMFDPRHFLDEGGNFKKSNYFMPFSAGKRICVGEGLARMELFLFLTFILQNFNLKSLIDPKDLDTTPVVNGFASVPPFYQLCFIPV
A further series addresses CYP2D6 (Homo sapiens (Human), UniProt P10635). Description: biochemical. The format is in vitro ADME. On the procedure:
as §1, §2

CYP3A4, sequence (P08684 whole entry): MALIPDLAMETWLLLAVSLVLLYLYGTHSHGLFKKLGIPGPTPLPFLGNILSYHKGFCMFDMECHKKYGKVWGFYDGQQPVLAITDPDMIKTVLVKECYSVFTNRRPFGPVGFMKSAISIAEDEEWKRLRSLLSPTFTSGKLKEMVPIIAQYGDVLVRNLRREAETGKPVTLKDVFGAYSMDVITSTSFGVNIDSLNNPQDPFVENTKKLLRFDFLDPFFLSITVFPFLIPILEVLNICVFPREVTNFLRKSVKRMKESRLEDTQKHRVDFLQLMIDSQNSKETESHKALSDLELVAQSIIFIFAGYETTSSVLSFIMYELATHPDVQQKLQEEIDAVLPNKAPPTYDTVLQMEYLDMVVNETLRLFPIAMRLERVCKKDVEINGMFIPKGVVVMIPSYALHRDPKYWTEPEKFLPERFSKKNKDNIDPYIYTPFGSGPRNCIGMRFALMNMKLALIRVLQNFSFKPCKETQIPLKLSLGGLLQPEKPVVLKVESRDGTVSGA
CYP2D6, sequence (P10635 whole entry): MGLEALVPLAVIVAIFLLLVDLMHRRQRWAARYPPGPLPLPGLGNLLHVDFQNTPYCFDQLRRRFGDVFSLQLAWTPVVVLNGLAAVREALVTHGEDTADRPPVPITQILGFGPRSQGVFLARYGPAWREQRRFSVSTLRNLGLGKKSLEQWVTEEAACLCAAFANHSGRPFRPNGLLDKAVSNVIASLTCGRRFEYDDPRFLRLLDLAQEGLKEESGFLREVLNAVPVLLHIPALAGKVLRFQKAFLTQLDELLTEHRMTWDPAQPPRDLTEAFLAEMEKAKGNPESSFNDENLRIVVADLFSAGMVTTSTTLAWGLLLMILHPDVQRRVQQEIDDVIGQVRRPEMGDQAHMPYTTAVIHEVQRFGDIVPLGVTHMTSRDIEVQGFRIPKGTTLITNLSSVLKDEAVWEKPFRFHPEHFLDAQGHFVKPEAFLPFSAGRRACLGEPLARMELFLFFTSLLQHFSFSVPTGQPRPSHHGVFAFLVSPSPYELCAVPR
CYP2A6, sequence (P11509 whole entry): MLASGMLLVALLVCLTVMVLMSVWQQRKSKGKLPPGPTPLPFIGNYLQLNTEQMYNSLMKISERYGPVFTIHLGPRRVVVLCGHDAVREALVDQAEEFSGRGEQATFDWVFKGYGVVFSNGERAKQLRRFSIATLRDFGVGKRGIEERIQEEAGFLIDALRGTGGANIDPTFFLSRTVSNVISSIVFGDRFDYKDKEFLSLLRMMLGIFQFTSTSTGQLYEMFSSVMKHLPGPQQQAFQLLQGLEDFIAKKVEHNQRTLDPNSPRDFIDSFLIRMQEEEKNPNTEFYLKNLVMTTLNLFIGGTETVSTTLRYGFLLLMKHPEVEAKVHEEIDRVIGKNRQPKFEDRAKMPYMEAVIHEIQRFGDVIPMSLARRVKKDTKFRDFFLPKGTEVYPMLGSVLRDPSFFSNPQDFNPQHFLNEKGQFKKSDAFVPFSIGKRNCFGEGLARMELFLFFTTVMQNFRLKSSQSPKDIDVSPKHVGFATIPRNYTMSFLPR
CYP2C8, sequence (P10632 whole entry): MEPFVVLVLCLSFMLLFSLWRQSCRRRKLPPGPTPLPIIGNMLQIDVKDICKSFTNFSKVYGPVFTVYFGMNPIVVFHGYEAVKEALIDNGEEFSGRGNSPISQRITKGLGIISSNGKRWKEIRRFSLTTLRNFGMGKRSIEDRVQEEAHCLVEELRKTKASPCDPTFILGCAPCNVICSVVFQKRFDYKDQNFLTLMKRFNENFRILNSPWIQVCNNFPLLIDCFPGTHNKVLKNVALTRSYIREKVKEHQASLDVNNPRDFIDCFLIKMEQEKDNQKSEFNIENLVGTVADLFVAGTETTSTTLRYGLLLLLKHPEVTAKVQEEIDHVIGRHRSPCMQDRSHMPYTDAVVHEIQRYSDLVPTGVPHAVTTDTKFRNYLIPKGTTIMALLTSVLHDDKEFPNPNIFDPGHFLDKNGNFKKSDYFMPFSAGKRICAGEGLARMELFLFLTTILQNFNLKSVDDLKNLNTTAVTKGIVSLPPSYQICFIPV
CYP1A2, sequence (P05177 whole entry): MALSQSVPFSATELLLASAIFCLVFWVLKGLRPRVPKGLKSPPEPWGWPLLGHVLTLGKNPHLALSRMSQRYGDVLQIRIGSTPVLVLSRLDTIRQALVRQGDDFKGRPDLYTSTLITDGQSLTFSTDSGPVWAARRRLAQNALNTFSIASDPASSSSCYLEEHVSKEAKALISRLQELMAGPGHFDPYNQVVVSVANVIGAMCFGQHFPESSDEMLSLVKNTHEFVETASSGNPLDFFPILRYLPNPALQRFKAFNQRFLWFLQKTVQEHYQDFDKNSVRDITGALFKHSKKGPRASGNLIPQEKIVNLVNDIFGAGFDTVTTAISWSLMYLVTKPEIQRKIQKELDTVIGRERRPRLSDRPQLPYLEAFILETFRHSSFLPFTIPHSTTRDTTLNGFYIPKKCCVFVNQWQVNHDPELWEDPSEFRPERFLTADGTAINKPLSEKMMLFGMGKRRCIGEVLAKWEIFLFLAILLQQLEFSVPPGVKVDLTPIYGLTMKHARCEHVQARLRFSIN
CYP2B6, sequence (P20813 whole entry): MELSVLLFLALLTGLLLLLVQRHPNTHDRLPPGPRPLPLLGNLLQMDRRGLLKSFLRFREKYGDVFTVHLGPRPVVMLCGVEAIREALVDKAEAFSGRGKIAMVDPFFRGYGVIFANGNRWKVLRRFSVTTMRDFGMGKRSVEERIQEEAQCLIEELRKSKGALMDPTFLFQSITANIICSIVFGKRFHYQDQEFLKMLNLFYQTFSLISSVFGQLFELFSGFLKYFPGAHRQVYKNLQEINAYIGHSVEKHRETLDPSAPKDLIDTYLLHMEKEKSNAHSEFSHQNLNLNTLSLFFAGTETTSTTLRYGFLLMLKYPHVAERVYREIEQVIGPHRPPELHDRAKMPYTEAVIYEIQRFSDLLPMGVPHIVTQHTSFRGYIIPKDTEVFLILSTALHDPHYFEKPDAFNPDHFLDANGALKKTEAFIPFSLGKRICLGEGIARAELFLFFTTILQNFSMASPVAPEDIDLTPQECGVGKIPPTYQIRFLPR
CYP2E1, sequence (P05181 whole entry): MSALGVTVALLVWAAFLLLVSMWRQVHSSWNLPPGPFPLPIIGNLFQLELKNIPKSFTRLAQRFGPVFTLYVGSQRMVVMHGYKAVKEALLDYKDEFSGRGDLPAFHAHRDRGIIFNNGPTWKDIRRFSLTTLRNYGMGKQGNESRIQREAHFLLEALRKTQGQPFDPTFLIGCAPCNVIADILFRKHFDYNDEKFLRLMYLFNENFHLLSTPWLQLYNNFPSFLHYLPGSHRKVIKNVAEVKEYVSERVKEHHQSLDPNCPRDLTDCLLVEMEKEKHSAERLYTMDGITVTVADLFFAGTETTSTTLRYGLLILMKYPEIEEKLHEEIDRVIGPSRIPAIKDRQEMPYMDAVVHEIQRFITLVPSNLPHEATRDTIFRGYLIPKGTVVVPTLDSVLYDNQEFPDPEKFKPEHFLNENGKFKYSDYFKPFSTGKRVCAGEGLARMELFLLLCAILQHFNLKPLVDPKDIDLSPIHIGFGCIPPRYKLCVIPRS

As for `COc1ccc(F)c(-n2ncc3c2CCC[C@H]3NC(=O)c2ncn3c2CCCC3)c1Cl` [Compound C, reference compound], the HLM % remaining in the series “in vitro [1]” (% remaining at 60 min, 1 μM) amounted to 69%. The half-life at 1 μM in “in vitro [1]” (both, human, pooled liver microsomes) was 1.7 h; in “in vitro [2]” (human, hepatocytes) it was above 10 h. The IC50 at CYP1A2 is above 30 µM; at CYP2E1, above 30 µM; at CYP2C9, 9.2 µM; at CYP3A4 (IC50 CYP3A4-M, substrate Midozolam), 16 µM; against CYP3A4 (IC50 CYP3A4-T, substrate Testosterone) it was above 30 µM; against CYP2A6, above 30 µM. The half-maximal inhibitory concentration (IC50) on CYP2B6 was above 30 µM; against CYP2C8 it was above 30 µM; at CYP2C19, 18 µM; against CYP2D6 it was above 30 µM. In “in vitro [2]” (% remaining at 120 min, 1 μM), this compound returned a hHEPs % remaining of 100%.
